Literature values, collected in patent US12582584B2, “Oxidizer and acid based system and regimen for enhancing skin appearance” (L'OREAL, priority 2021, dated 2026).

Conditions: acute oral toxicity, mutagenicity, skin irritation, skin sensitization, phototoxicity

## CC(c1ccccc1)c1ccc(O)cc1O (stereo not shown) [Phenylethyl resorcinol]
  Adverse effects in basic toxicological tests: has not shown adverse effects
